Source: US20040106678A1, “Compositions for the parenteral administration of calcium and magnesium” (priority 2002, published 2004)

Columns and labels:
[1] = parenteral administration; cited from earlier work
[2] = saturated aqueous solution at 20° C.; cited from earlier work
[3] = toxicity / tolerability on parenteral use; settings: anion is a naturally occurring mammalian metabolite
pH of aqueous solution = assay type: physicochemical
[4] = stability of the powder / shelf life; assay type: physicochemical

[Ca+2].[Cl-].[Cl-] [Calcium chloride]
venous toxicity [1]: appreciably toxic to veins

D-gluconic acid calcium salt [Calcium gluconate]
pH of saturated solution [2]: 6-7

calcium 3-hydroxy-3-methylbutyrate [CaHMB]
toxicity [3]: non-toxic | pH of saturated aqueous solution (pH of aqueous solution; 27% by weight saturated aqueous solution at 20° C.): neutral or slightly alkaline | pH of aqueous solution in distilled water (pH of aqueous solution; if pure, dissolved in distilled water): nearly neutral or slightly alkaline | powder stability / shelf life [4]: stable powders with long shelf lives
